Measured values as given in US20050187184A1, “Antineoplastic combinations” (Wyeth, priority 2001, published 2005).
Where a name gives a salt, the structure may show the parent alone.

What was measured:
orthotopic glioma = details: nude mice; cited from earlier work
human pancreatic tumors = details: several human pancreatic tumors in nude mice; cited from earlier work
[1] = system: human tumor xenografts of diverse histological types; details: nude mice; cited from earlier work
[2] = system: human glioblastoma cell line; details: in vitro; cited from earlier work
breast cancer lines = details: one of two breast cancer lines studied in vivo; cited from earlier work
[3] = system: histologically diverse tumor cells; details: cited from earlier work
human colon line GC3 = assay: human colon (GC3) mouse xenograft test procedure; assay type: in vivo; details: gemcitabine on days 1, 4 and 8 in the first cycle
Method: Female CBA/CaJ mice (Jackson Laboratories, Bar Harbor, Me.), 4 weeks of age, were immune-deprived by thymectomy, followed 3 weeks later by whole-body irradiation (1200 cGy) using a ^137Cs source. Mice received 3×10^6 nucleated bone marrow cells within 6-8 h of irradiation. Tumor pieces of approximately 3 mm^3 were implanted in the space of the dorsal lateral flanks of the mice to initiate tumor growth. Tumor-bearing mice were randomized into groups of seven prior to initiating therapy. Mice bearing tumors each received drug when tumors were approximately 0.20-1 cm in diameter. Tumor size was determined at 7-day intervals using digital Vernier calipers interfaced with a computer. Tumor volumes were calculated assuming tumors to be spherical using the formula [(□/6)×d^3], where d is the mean diameter. CCI-779 was given on a schedule of 5 consecutive days for 2 weeks with this cycle repeated every 21 days for 3 cycles. […] The schedule of the other chemotherapy drug for each study was as follows: • Gemcitabine on days 1, 4, 8 in cycle 1 only The combination of CCI-779 and gemcitabine was evaluated in a human colon (GC3) mouse xenograft test procedure. In this test procedure, CCI-779 was given daily ×5 for 2 consecutive weeks every 21 days for 3 cycles and gemcitabine given on days 1, 4, and 8 in the first cycle only.

Structure (SMILES)	activity in orthotopic glioma model (orthotopic glioma)	tumor growth (human pancreatic tumors)	activity against human tumor xenografts [1]	sensitivity of gliomas [1]	growth factor (platelet-derived)-induced stimulation [2]	tumor growth (breast cancer lines)	growth of tumor cells in vitro ([3]; CNS cancer, leukemia (T-cell), breast cancer, prostate cancer and melanoma lines among the most sensitive)	cell cycle effect ([3]; in vitro)	tumor response in the first cycle (human colon line GC3)
CO[C@H]1C[C@@H]2CC[C@@H](C)[C@@](O)(O2)C(=O)C(=O)N2CCCC[C@H]2C(=O)O[C@H]([C@H](C)C[C@@H]2CC[C@@H](OC(=O)C(C)(CO)CO)[C@H](OC)C2)CC(=O)[C@H](C)/C=C(\C)[C@@H](O)[C@@H](OC)C(=O)[C@H](C)C[C@H](C)/C=C/C=C/C=C/1C [CCI-779, Rapamycin 42-ester with 3-hydroxy-2-(hydroxymethyl)-2-methylpropionic acid]	active	inhibited	has activity	particularly sensitive	markedly suppressed	inhibited	inhibit the growth	arrested cells in the G1 phase	
Nc1ccn([C@@H]2O[C@H](CO)[C@@H](O)C2(F)F)c(=O)n1 [gemcitabine, 2′-deoxy-2′,2′-difluorocytidine monohydrochloride ((beta)-isomer)]									tumor regression
